Source: patent US10485773B2, “Benzenesulfonamide derivatives and method for treating cancer” (GONGWIN BIOPHARM HOLDINGS CO., LTD., priority 2016, dated 2019)
In brackets after ≈: the same amount, converted by molar mass. Where two headings read alike, the source gives them in different places.

Assays:
[1] = first dissolution test in DMSO or water; settings: for dissolution in the first dissolution test: DMSO or water; for Total volume of DMSO for dissolving the p-TSA derivatives / Total volume of water for dissolving the p-TSA derivatives: first dissolution test, amount for a 3M solution in 0.5 mL, up to 15000 μL; for solubility: thermodynamic from solid
Procedure: Each of the powder of p-TSA derivatives was duplicated, placed in each 15 mL centrifuge tube, followed by adding 200 μL DMSO or 200 μL water and shaking for 10 to 20 seconds for dissolution observation. If the powder was not dissolved, additional DMSO or water was added, and then the mixture was shaken. The tube was left to stand for 10 minutes for observation if the powder was still not dissolved after adding 1 mL DMSO or 1 mL water. If the powder was still not dissolved after adding 5 mL DMSO or 5 mL water, additional 1 mL DMSO or 1 mL water was added, and then the mixture was shaken for 30 seconds. If the powder was still not dissolved after adding 10 mL DMSO or 10 mL water, the tube was left to stand for 12 to 16 hours and observed on the next day. DMSO or water was added into the tube having the undissolved p-TSA derivatives up to 15 mL, followed by shaking for 30 minutes for observation.

[2] = second dissolution test in DMSO or water; assay type: physicochemical; settings: for dissolution in the second dissolution test: 100 mg powder, DMSO or water; for Total volume of DMSO for dissolving the p-TSA derivatives / Total volume of water for dissolving the p-TSA derivatives: second dissolution test, 0.1 g powder
Procedure: A second dissolution test was performed for the undissolved p-TSA derivatives. Each of 100 mg p-TSA derivatives powder was placed in each of the scintillation vial, followed by adding 500 μL DMSO or 500 μL water and shaking for 30 seconds for dissolution observation.

[3] = tested on: human non-small-cell lung cancer cell lines H460; assay: SRB growth inhibition of lung cancer cells; assay type: cell-based; settings: 48 hours, SRB
Procedure: (§1) After letting to stand for 10 minutes at room temperature, the supernatant of each well was removed, and each well was washed with 200 μL H2O once. […] Each of the plates was then placed in the laminar flow cabinet for 1 hour for air dry. 50 μL 0.4% sulforhodamine B (SRB) dye was added into each well of the 96-well plate. […] Each of the plates was then placed in the laminar flow cabinet for 40 minutes to 1 hour for air dry. 1×Tris-Base solution with pH 7.0 to 7.4 was added to each well of the 96-well plate to dissolve the protein complex formed in the bottom of each well, followed by tapping the 96-well plate, allowing the complex in each well to be dissolved uniformly. Absorption of each well under 515 nm was read. […] Each of the experimental group was performed in triplet.

[4] = tested on: human liver cancer cell lines Hep3B; assay: SRB growth inhibition of liver cancer cells; assay type: cell-based; settings: 48 hours, SRB
Procedure: as §1

[5] = Homo sapiens, NCI-H460, 48 h, derivative dissolved in DMSO, read-out: IC50 of H460 in DMSO
[6] = Homo sapiens, Hep3B, 48 h, derivative dissolved in DMSO, read-out: IC50 of Hep3B in DMSO
[7] = DMSO, organic solvent or mixture
[8] = Homo sapiens, NCI-H460, 48 h, derivative dissolved in water, read-out: IC50 of H460 in water
[9] = Homo sapiens, Hep3B, 48 h, derivative dissolved in water, read-out: IC50 of Hep3B in water
[10] = derivative dissolved in DMSO, read-out: IC50 of H460 in DMSO
[11] = derivative dissolved in DMSO, read-out: IC50 of Hep3B in DMSO

Structure (SMILES) | Total volume of DMSO for dissolving the p-TSA derivatives ([1]; DMSO) | Total volume of water for dissolving the p-TSA derivatives ([1]; water) | IC50 [3, 5] | IC50 [4, 6] | also measured
Cc1ccc(S(=O)(=O)N2CC(=NNC(=O)C3CN(S(=O)(=O)c4ccc(C)cc4)C3)C2)cc1 [PTSA073] | insoluble in 15000 μL | insoluble in 15000 μL | – | – | dissolution in the first dissolution test [1]: not dissolved in DMSO or water; dissolution in the second dissolution test [2]: dissolved in both of; Total volume of DMSO for dissolving the p-TSA derivatives [2]: 4.04 mL; Total volume of water for dissolving the p-TSA derivatives [2]: insoluble in 20 mL
Cc1ccc(S(=O)(=O)NCCF)cc1 [PTSA049] | insoluble in 15000 μL | insoluble in 15000 μL | > 174 µM | > 174 µM | dissolution in the first dissolution test [1]: not dissolved in DMSO or water; dissolution in the second dissolution test [2]: dissolved in both of; Total volume of DMSO for dissolving the p-TSA derivatives [2]: 9.5 mL; Total volume of water for dissolving the p-TSA derivatives [2]: insoluble in 20 mL
Cc1ccc(S(=O)(=O)N2CC[C@@H](O)C2)cc1 [PTSA035] | 490 µL | insoluble in 15000 μL | 2830 µM | 2280 µM | –
Cc1ccc(S(=O)(=O)NCC(O)CO)cc1 (centres unmarked) [PTSA028] | 620 µL | insoluble in 15000 μL | 5530 µM | 5360 µM | –
CCOC(=O)NS(=O)(=O)c1ccc(C)cc1 [PTSA014] | 610 µL | insoluble in 15000 μL | 5820 µM | 4590 µM | –
Cc1ccc(S(=O)(=O)N2CC(C(=O)NO)C2)cc1 [PTSA067] | 870 µL | insoluble in 15000 μL | 273 µM | 261 µM | solubility [1, 7]: 466 mg/mL (≈ 1720 mM); solubility ([1]; water): < 50 mg/mL
Cc1ccc(S(=O)(=O)NC(CO)(CO)CO)cc1 [PTSA031] | 700 µL | 10000 µL | 3310 µM | 4210 µM | IC50 [3, 8]: > 1000 µM; IC50 [4, 9]: > 1000 µM
Cc1ccc(S(=O)(=O)NCCOCCO)cc1 [PTSA022] | 505 µL | insoluble in 15000 μL | 3650 µM | 4720 µM | –
Cc1ccc(S(=O)(=O)NC2CCN(Cc3ccccc3)CC2)cc1.Cl [PTSA052i] | 4000 µL | insoluble in 15000 μL | 141 µM | 137 µM | solubility [1, 7]: 143 mg/mL; solubility ([1]; water): < 50 mg/mL
Cc1ccc(S(=O)(=O)NC[C@@H](O)CO)cc1 [PTSA027] | 575 µL | insoluble in 15000 μL | 5350 µM | 4100 µM | –
Cc1ccc(S(=O)(=O)N2CC(CO)C2)cc1 [PTSA069] | 880 µL | insoluble in 15000 μL | 2580 µM | 3620 µM | –
Cc1ccc(S(=O)(=O)NC(=O)NS(=O)(=O)c2ccc(C)cc2)cc1 [PTSA017] | 2000 µL | insoluble in 15000 μL | > 3000 µM | > 3000 µM | –
Cc1ccc(S(=O)(=O)N2CC(C#N)C2)cc1 [PTSA063] | 900 µL | insoluble in 15000 μL | 1270 µM | 1300 µM | –
Cc1ccc(S(=O)(=O)N2CC(CN)C2)cc1.Cl [PTSA068] | 4000 µL | 4500 µL | 1270 µM | 1250 µM | IC50 [3, 8]: 1390 µM; IC50 [4, 9]: 1300 µM
CC(=O)NS(=O)(=O)c1ccc(C)cc1 [PTSA002] | insoluble in 15000 μL | insoluble in 15000 μL | – | – | dissolution in the first dissolution test [1]: not dissolved in DMSO or water; dissolution in the second dissolution test [2]: dissolved in both of; Total volume of DMSO for dissolving the p-TSA derivatives [2]: 8 mL; Total volume of water for dissolving the p-TSA derivatives [2]: 5.25 mL; IC50 [3, 8]: > 6030 µM; IC50 [3, 10]: > 270 µM; IC50 [4, 9]: > 6030 µM; IC50 [4, 11]: > 270 µM
Cc1ccc(S(=O)(=O)N2CCNCC2)cc1 [PTSA038] | 680 µL | insoluble in 15000 μL | 1620 µM | 1570 µM | –
Cc1ccc(S(=O)(=O)N2CC(C(=O)NN)C2)cc1 [PTSA071] | 1500 µL | insoluble in 15000 μL | 1040 µM | 1020 µM | –
Cc1ccc(S(=O)(=O)N2CCCC2C(=O)O)cc1 (centres unmarked) [PTSA047] | 2000 µL | 2500 µL | > 3000 µM | > 3000 µM | IC50 [3, 8]: > 3000 µM; IC50 [4, 9]: > 3000 µM
CCOC(=O)NS(=O)(=O)c1ccc(C)cc1 [PTSA015] | 815 µL | 500 µL | – | – | IC50 [3, 8]: 4960 µM; IC50 [3, 10]: 4790 µM; IC50 [4, 11]: 5770 µM
Cc1ccc(S(=O)(=O)NCC2(CO)COC2)cc1 [PTSA039] | 500 µL | insoluble in 15000 μL | 4160 µM | 3740 µM | –
Cc1ccc(S(=O)(=O)NCC2CCNCC2)cc1.Cl [PTSA054] | 740 µL | insoluble in 15000 μL | 1170 µM | 935 µM | –
Cc1ccc(S(N)(=O)=O)cc1 [p-TSA, Toluene sulfonamide, reference compound] | – | – | – | – | Solubility in DMSO ([1]; DMSO): 785.95 mg/mL (≈ 4590 mM); Solubility in water ([1]; water): <50 mg/mL; IC50 [3, 10]: 3720 ± 146 µM; IC50 [4, 11]: 3730 ± 274 µM
Cc1ccc(S(=O)(=O)N2CCC(O)CC2)cc1 [PTSA032] | insoluble in 15000 μL | insoluble in 15000 μL | – | – | Dissolution of p-TSA derivatives (in DMSO and/or water) ([1]; overall result of first and second dissolution tests, category is the column head of Table 3): not dissolved in neither DMSO nor water; Total volume of DMSO for dissolving the p-TSA derivatives [2]: insoluble in 20 ml mL; Total volume of DMSO for dissolving the p-TSA derivatives ([2]; listed as PTSA0032): > 20 mL; Total volume of water for dissolving the p-TSA derivatives [2]: insoluble in 20 mL; Total volume of water for dissolving the p-TSA derivatives ([2]; listed as PTSA0032): > 20 mL
Cc1ccc(S(=O)(=O)N2CCCC2CO)cc1 (centres unmarked) [PTSA034] | 505 µL | insoluble in 15000 μL | 1500 µM | 1780 µM | –
Cc1ccc(S(=O)(=O)N2CC(F)(F)C2)cc1 [PTSA064] | 750 µL | insoluble in 15000 μL | > 713 µM | > 713 µM | –
Cc1ccc(S(=O)(=O)NC2CCNCC2)cc1.Cl [PTSA052] | 2000 µL | 5000 µL | 906 µM | 919 µM | IC50 [3, 8]: 1090 µM; IC50 [4, 9]: 954 µM
Cc1ccc(S(=O)(=O)N[C@@H](C)C(=O)O)cc1 [PTSA045] | 2000 µL | insoluble in 15000 μL | > 3000 µM | > 3000 µM | –
Cc1ccc(S(=O)(=O)N2CC(F)C2)cc1 [PTSA065] | 2500 µL | insoluble in 15000 μL | 1330 µM | 1450 µM | –
